Assay results reported in US6762170B1, “2-(purin-9-yl)-tetrahydrofuran-3,4-diol derivatives” (SmithKlineBeecham Corporation, priority 1998, dated 2004).
Structures can show the parent of a compound that is named as a salt.

What was measured:
Format in all cases: cell-based
[1] = biological target: T1, Adenosine 2a receptor (Homo sapiens, UniProt P29274); test: Agonist activity against adenosine 2a receptor subtype (CHO cells, cAMP response element/SPAP reporter); settings: EC50 ratio to NECA; transfected CHO cells, basal cAMP reflected by SPAP
T1 construct: expressed in transfected cells; host or cells: Chinese hamster ovary (CHO) cells, co-transfected with a CRE-SPAP reporter
T1 sequence (P29274 whole entry): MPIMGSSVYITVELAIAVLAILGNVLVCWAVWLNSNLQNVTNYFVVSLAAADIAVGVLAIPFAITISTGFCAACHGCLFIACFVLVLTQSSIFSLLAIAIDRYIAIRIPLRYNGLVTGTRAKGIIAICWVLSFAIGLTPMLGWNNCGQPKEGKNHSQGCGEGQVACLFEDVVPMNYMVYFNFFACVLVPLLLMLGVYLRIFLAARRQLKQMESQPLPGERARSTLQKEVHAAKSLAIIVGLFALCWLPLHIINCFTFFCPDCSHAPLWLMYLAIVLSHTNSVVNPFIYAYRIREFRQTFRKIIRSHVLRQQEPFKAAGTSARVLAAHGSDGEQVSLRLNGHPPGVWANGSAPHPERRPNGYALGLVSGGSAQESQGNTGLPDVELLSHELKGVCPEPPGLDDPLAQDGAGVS
Experimental: (§1) (1) Agonist Activity Against Adenosine 2a, Adenosine 1 and Adenosine 3 Receptor Subtypes.
(§2) Agonist selectivity of compounds against other human adenosine receptors is determined using Chinese hamster ovary (CHO) cells transfected with the gene for the relevant human adenosine receptor following a method based on that of Castanon and Spevak, 1994. The CHO cells are also transfected with cyclic AMP response elements promoting the gene for secreted placental alkaline phosphatase (SPAP) (Wood, 1995). The effect of test compounds may be determined by their effects on basal levels of cAMP (A2a) or on forskolin-enhanced cAMP (A1 and A3) as reflected by changes in levels of SPAP. EC50 values for compounds may then be determined as a ratio to that of the non-selective agonist N-ethyl carboxamide adenosine (NECA).
(§3) Values given in the Table are EC50 values as a ratio of that of NECA.

[2] = biological target: T2, Adenosine 3 receptor (Homo sapiens, UniProt P0DMS8); test: Agonist activity against adenosine 3 receptor subtype (CHO cells, forskolin-enhanced cAMP, SPAP reporter); settings: EC50 ratio to NECA; transfected CHO cells, forskolin-enhanced cAMP reflected by SPAP
T2 construct: expressed in transfected cells; host or cells: Chinese hamster ovary (CHO) cells, co-transfected with a CRE-SPAP reporter
T2 sequence (P0DMS8 1-318): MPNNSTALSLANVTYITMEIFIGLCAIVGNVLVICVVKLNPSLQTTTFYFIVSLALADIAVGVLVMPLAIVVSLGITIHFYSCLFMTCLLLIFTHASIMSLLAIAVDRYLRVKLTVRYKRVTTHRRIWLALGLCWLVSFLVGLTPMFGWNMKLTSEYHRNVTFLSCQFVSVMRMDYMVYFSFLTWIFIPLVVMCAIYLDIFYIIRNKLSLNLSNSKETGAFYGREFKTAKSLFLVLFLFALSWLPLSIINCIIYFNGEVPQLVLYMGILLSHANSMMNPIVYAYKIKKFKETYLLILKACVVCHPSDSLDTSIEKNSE
Experimental: as §1, §2, §3

[3] = biological target: T3, Adenosine 1 receptor (Homo sapiens, UniProt P30542); test: Agonist activity against adenosine 1 receptor subtype (CHO cells, forskolin-enhanced cAMP, SPAP reporter); settings: EC50 ratio to NECA; transfected CHO cells, forskolin-enhanced cAMP reflected by SPAP
T3 construct: expressed in transfected cells; host or cells: Chinese hamster ovary (CHO) cells, co-transfected with a CRE-SPAP reporter
T3 sequence (P30542 1-326): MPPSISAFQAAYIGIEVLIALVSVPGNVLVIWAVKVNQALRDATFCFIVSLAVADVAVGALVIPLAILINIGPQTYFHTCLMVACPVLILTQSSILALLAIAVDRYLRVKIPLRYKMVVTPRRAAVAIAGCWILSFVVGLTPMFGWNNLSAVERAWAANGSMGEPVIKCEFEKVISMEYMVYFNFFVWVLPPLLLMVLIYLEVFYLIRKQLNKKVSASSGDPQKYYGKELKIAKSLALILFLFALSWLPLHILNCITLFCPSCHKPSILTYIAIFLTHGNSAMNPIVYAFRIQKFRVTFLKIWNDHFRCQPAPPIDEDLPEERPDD
Experimental: as §1, §2, §3

Compound	A2a (EC50 values as a ratio of that of NECA) [1]	A3 (EC50 values as a ratio of that of NECA) [2]	A1 (EC50 values as a ratio of that of NECA) [3]
CCc1cc(C2OC(n3cnc4c(NCCS(=O)(=O)NC)nc(NCCNC(=N)N)nc43)C(O)C2O)on1 (stereo not drawn) [Example 25, 2-[2-9-[5S-(3-Ethyl-isoxazol-5-yl)-3R,4S-dihydroxy-tetrahydro-furan-2R-yl]-2-(2-guanidino-ethylamino)-9H-purin-6-ylamino]-ethanesulfonic acid methylamide diformate]	5.46	>198	103.8
CCc1cc(C2OC(n3cnc4c(NCCS(=O)(=O)NC)nc(NC(CO)Cc5ccccc5)nc43)C(O)C2O)on1 (stereo not drawn) [Example 27, 2-[9-[5S-(3-Ethyl-isoxazol-5-yl)-3R,4S-dihydroxy-tetrahydro-furan-2R-yl]-2-(1S-hydroxymethyl-2-phenyl-ethylamino)-9H-purin-6-ylamino]-ethanesulfonic acid methylamide formate]	3	>273	3.18
CCc1cc(C2OC(n3cnc4c(NC(CC)CC)nc(NC(CO)Cc5ccccc5)nc43)C(O)C2O)on1 [Example 35, (2S,3S,4R,5R)-2-(3-Ethyl-4-isoxazol-5-yl)-5-[6-(1-ethyl-propylamino)-2-(1S-hydroxymethyl-2-phenyl-ethylamino)-purin-9-yl]-tetrahydro-furan-3,4-diol formate]	2.53	>223	89.16
CCc1cc(C2OC(n3cnc4c(NC(CC)CC)nc(NC5CCNC5)nc43)C(O)C2O)on1 [Example 36, (2S,3S,4R,5R)-2-(3-Ethyl-isoxazol-5-yl)-5-[6-(1(-ethyl-propylamino)-2-(pyrrolidin-3R-ylamino)-purin-9-yl]-tetrahydro-furan-3,4-diol diformate]	4.7	>207	68.32
CCc1cc(C2OC(n3cnc4c(NC(CC)CC)nc(NCCc5ccccn5)nc43)C(O)C2O)on1 [Example 37, (2S,3S,4R,5R)-2-(3-Ethyl-isoxazol-5-yl)-5-[61-ethyl-propylamino)-2-(2-pyridin-2-yl-ethylamino)-purin-9-yl]-tetrahydro-furan-3,4-diol diformate]	2.65	>207	136.56
CCc1cc(C2OC(n3cnc4c(NC(CC)CC)nc(NCCNC(=N)N)nc43)C(O)C2O)on1 (stereo not drawn) [Example 40, N-{2-[9-[5S-(3-Ethyl-isoxazol-5-yl)-3R,4S-dihydroxy-tetrahydro-furan-2R-yl]6-(1-ethyl-propylamino)-9H-purin-2-ylamino]-ethyl}-guanidine diformate]	3.38	>88	70.53

The remaining lines, values ahead:

A2a (EC50 values as a ratio of that of NECA) [1]	A3 (EC50 values as a ratio of that of NECA) [2]	A1 (EC50 values as a ratio of that of NECA) [3]	Compound
6.89	>286	273.3	CCc1cc(C2OC(n3cnc4c(NC5CCS(=O)(=O)CC5)nc(NCCNC(=N)N)nc43)C(O)C2O)on1 (stereo not drawn) [Example 26, N-(2-{6-(1,1-Dioxo-hexahydro-1λ6-thiopyran-4-ylamino)-9-[5S-(3-ethyl-isoxazol-5-yl)-3R ,4S-dihydroxy-tetrahydro-furan-2R-yl]-9H-purin-2-ylamino}-ethyl)-guanidine diformate]
14.5	>263	165.8	CCc1cc(C2OC(n3cnc4c(NC5CCN(C(C)=O)CC5)nc(NC(CO)Cc5ccccc5)nc43)C(O)C2O)on1 (stereo not drawn) [Example 28, 1-{4-[9-[5S-(3-Ethyl-isoxazol-5-yl)-3R,4S-dihydroxy-tetrahydro-furan-2R-yl]-2-(1S-hydroxymethyl-2-phenyl-ethylamino)-9H-purin-6-ylamino]-piperidin-1-yl}-ethanone formate]
5.03	>298	27.24	CCc1cc(C2OC(n3cnc4c(NC5CCN(C(C)=O)CC5)nc(NC5CCC(N)CC5)nc43)C(O)C2O)on1 (stereo not drawn) [Example 29, 1-(4-{2-(trans-4-Amino-cyclohexylamino)-9-[5S-(3-ethyl-isoxazol-5-yl)-3R,4S-dihydroxy-tetrahydro-furan-2R-yl]-9H-purin-6-ylamino}-piperidin-1-yl)-ethanone diformate]
4.58	>257	108.8	CCc1cc([C@@H]2O[C@H](n3cnc4c(NC5CCSCC5)nc(NCCc5ccccn5)nc43)[C@@H](O)[C@H]2O)on1.O=CO.O=CO [Example 30, (2R,3R,4S,5S)-2-(3Ethyl-isoxazol-5-yl)-5-[2-(2-pyridin-2-yl-ethylamino)-6-(tetrahydro-thiopyran-4-ylamino)-purin-9-yl]-tetrahydro-furan-3,4-diol diformate]
10.59	>310	577.2	CCc1cc(C2OC(n3cnc4c(NC5CCS(=O)(=O)CC5)nc(NCCN5CCCCC5)nc43)C(O)C2O)on1.O=CO.O=CO [Example 31, (2R,3R,4S,5S)-2-[6-(1,1-Dioxo-hexahydro-1λ6-thiopyran-4-ylamino)-2-(2-piperidin-1-yl-ethylamino)-purin-9-yl]-5-(3-ethyl-isoxazol-5-yl)-tetrahydro-furan-3,4-diol diformate]
3.79	>176	31.75	CCc1cc(C2OC(n3cnc4c(NC5CCS(=O)(=O)CC5)nc(NC5CCC(N)CC5)nc43)C(O)C2O)on1 [Example 32, (2R,3R,4S,5S)-2-[2-trans-4-Amino-cyclohexylamino)-6-(1-dioxo-hexahydro-1λ6-thiopyran-4-ylamino)-purin-9-yl]-5-(3-ethyl-isoxazol-5-yl)-tetrahydro-furan-3,4-diol diformate]
5.29	>737	44.1	CCc1cc(C2OC(n3cnc4c(NC(CC)CC)nc(NCCN5CCOCC5)nc43)C(O)C2O)on1.O=CO.O=CO [Example 38, (2S,3S,4R,5R)-2-(3Ethyl-isoxazol-5-yl)-5-[6(1-ethyl-propylamino)-2-(2-morpholin-4-yl-ethylamino)-purin-9-yl]-tetrahydro-furan-3,4-diol diformate]
2.12	>85	86.8	CCc1cc(C2OC(n3cnc4c(NC(CC)CC)nc(NC5CCC(N)CC5)nc43)C(O)C2O)on1.O=CO.O=CO [Example 39, (2R,3R,4S,5S)-2-[2(trans-4-Amino-cyclohexylamino)-6(1-ethyl-propylamino)-purin-9-yl]-5-(3-ethyl-isoxazol-5-yl)-tetrahydro-furan-3,4-diol diformate]
27.39	>395	2907.96	CCc1cc([C@H]2O[C@@H](n3cnc4c(NCCC(C)(C)C)nc(NCCN5CCCCC5)nc43)[C@H](O)[C@@H]2O)on1.O=CO.O=CO [Example 41, (2R,3R,4S,5S)-2-[6-(3,3-Dimethyl-butylamino)-2-(2-piperidin-1-yl-ethylamino)-purin-9-yl]-5-(3-ethyl-isoxazol-5-yl)-tetrahydro-furan-3,4-diol diformate]
41.06	>395	1369.08	CCc1cc(C2OC(n3cnc4c(NCCC(C)(C)C)nc(NCCN5CCOCC5)nc43)C(O)C2O)on1 [Example 42, (2R,3R,4S,5S)-2-[6-(3,3-Dimethyl-butylamino)-2-(2-morpholin-4-ethylamino)-purin-9-yl]-5-(3-ethyl-isoxazol-5-yl)-tetrahydro-furan-3,4-diol diformate]]
